Consider six compounds from patent US8431581B2, “Imidazopyrimidines and uses thereof” (priority 2008, dated 2013).

One assay deals with HIV WT integrase. Briefly: Phenosense (PhenoScreen) assay, wild type virus. Particulars: Human immunodeficiency virus 1, read-out: Phenosense assay WT activity value. Type of assay: cell-based. An excerpt: (§1) Monogram Bioscience' PhenoScreen assay allows the evaluation of integrase inhibitors for activity against a variety of HIV variants. The assay uses virus generated from 2 DNA constructs; one containing the HIV LTR, gag and pol regions, as well as a luciferase reporter gene in place of the viral envelope genes, and a second DNA construct containing the amphotrophic murine leukemia virus (A-MLV) envelope gene required to pseudotype virions and render them capable of entry into a target cell. Viruses generated using these constructs by transfection into a producer cell line such as 293T are capable of one-round of infection only. Successful integration events are directly proportional to the levels of luciferase expression 48-72 h after infection.
(§2) The viral variants chosen by Avexa Ltd. to screen their in-house integration inhibitors against consist of mutations within the viral integrase enzyme known to confer resistance to a number of known integration inhibitors published in the literature. In particular, the viral variants containing the Q148H/G140S double mutation in integrase, and the N155H/E92Q double mutation in integrase, represent two of the more common viruses identified to arise in patients that are failing treatment with Isentress (Raltegravir, MK-0518).
(§3) Both the Phenosense assay and the Enzyme assay give substantially the same activity values for any particular compound and enzyme pair. The activity of one compound in one assay can therefore be directly compared to the activity of a second compound in the other assay.

Assay [1] concerns HIV variant T125K F121Y integrase. Briefly: Phenosense (PhenoScreen) assay, T125K F121Y variant. Type of assay: cell-based. Particulars: Human immunodeficiency virus 1, read-out: Phenosense assay T125K F121Y activity value.
From the text: as §1, §2, §3

Assay [2] relates to HIV variant Y143R integrase. Briefly: Phenosense (PhenoScreen) assay, Y143R variant. Type of assay: cell-based. Conditions: Human immunodeficiency virus 1, read-out: Phenosense assay Y143R activity value.
From the text: as §1, §2, §3

Assay [3] deals with HIV variant T661 S153Y integrase. Briefly: Phenosense (PhenoScreen) assay, T661 S153Y variant. Type of assay: cell-based. Particulars: Human immunodeficiency virus 1, read-out: Phenosense assay T661 S153Y activity value.
From the text: as §1, §2, §3

Assay [4] concerns HIV variant E92Q N155H integrase. Briefly: Phenosense (PhenoScreen) assay, E92Q N155H variant. It counts as cell-based. Conditions: Human immunodeficiency virus 1, read-out: Phenosense assay E92Q N155H activity value.
From the text: as §1, §2, §3

The test system of assay [5] is HIV variant G140S Q148H integrase. Briefly: Phenosense (PhenoScreen) assay, G140S Q148H variant. It counts as cell-based. Particulars: Human immunodeficiency virus 1, read-out: Phenosense assay G140S Q148H activity value.
From the text: as §1, §2, §3

The target of a further assay is T1, HIV integrase WT (Human immunodeficiency virus type 1 group M subtype B, UniProt P12497).
T1 construct: The integrase coding region was then subject to PCR and cloned into a bacterial expression vector; made in house
Briefly: Strand transfer assay (enzyme assay), wild type. It counts as biochemical, HIV-1.
From the text: HIV integrase was mutated within a shuttle vector (pGEMNLHE) containing the majority of the HIV-1 gag and pol sequence using site directed mutagenesis to generate integrase sequences that have been published as conferring resistance to published integrase inhibitors. These include, but are not limited to, mutations such as Q148K, Q148H/G140S and N155H/E92Q. The integrase coding region was then subject to PCR and cloned into a bacterial expression vector. The specific introduction of desired mutation(s) was confirmed by sequence analysis. Proteins were expressed, purified and used in strand transfer assays.
A strand transfer assay procedure similar to that published (Ovenden et al. Phytochemistry. 2004 December; 65(24):3255-9.) is used. Briefly, 400 ng of the enzyme, wild type or drug resistant mutant, is mixed with the compound to be tested and incubated with 30 nM substrate DNA. The substrate DNA is designed to mimic HIV DNA termini that has undergone 3′ end processing, and consists of the annealed U5 LTR sequence oligonucleotides tagged with Digoxigenin (DIG; 5′-[…]-DIG-3′) or biotin (5′-Bio-[…]-3′) so that each substrate has either a DIG or Bio tag on opposite strands. Reactions are carried out for 1 hr at 37° C. Products generated as a result of strand transfer activity are bound to streptavidin plates and detected using anti-DIG-alkaline phosphatase conjugate and p-nitro phenyl phosphate substrate.
as §3

The subject of assay [6] is HIV-1 reporter virus, integrase Q148H/G140S (QHGS). Briefly: Luciferase reporter virus infectivity assay, QHGS mutant. Particulars: Human immunodeficiency virus 1, HEK-293T, read-out: Luciferase assay results QHGS (EC50). Type of assay: cell-based. An excerpt: (§4) Infectivity assays using reporter viruses derived from lentiviral vectors capable of a single round of infection were used to determine the activity (EC50) of compounds. The DNA used to generate viruses for infection was the full-length HIV-1 genome which had been envelope-deleted. In addition, a reporter gene (the firefly luciferase gene from Photinus pyralis) was cloned into the nef region of the HIV backbone for ease of assay readout. […]. Culture supernatants containing VSV-G pseudotyped virions were harvested 64 h post transfection, clarified by centrifugation to remove cell debris, and frozen at −70° C. until use.
(§5) HIV integrase was mutated within a shuttle vector (pGEM) containing the majority of the HIV-1 gag and pol sequence using site-directed mutagenesis to generate sequences that are known to confer resistance to published integrase inhibitors. These include but are not limited to mutations such as Q148H/G140S (in tables 2 and 3 # QHGS), N155H/E92Q (in table 2 # NHEQ), F121Y/T124K (in table 2 FYTK), Y143R (in table 2 # Y143R) and the triple mutant Q148K/G140A/E138A. (in table 2 # QKGAEA). The mutated integrase coding region within the shuttle vector was sequence verified, and then exchanged for the wild-type (WT) coding sequence in the reporter virus DNA backbone.
(§6) 293T cells were plated out at 12000 cells per well in CellView 96-well cell culture plates (Invitrogen) 16 h prior to compound addition. Compounds were preincubated with cells for 4 h at 37° C. prior to the addition of virus sufficient to generate approximately 10000 Luciferase light units (as measured by the Victor Wallace luminometer) upon assaying using the Bright-Glo™ reagent (Promega) according to the manufacturer's instructions at 48 h post infection.

The subject of assay [7] is HIV-1 reporter virus, wild-type (WT) integrase. Briefly: Luciferase reporter virus infectivity assay, WT. Type of assay: cell-based. Conditions: Human immunodeficiency virus 1, HEK-293T, 48 h, read-out: Luciferase assay results WT (EC50).
From the text: as §4, §5, §6

Assay [8] concerns HIV-1 reporter virus, integrase N155H/E92Q (NHEQ). Briefly: Luciferase reporter virus infectivity assay, NHEQ mutant. Type of assay: cell-based. Conditions: Human immunodeficiency virus 1, HEK-293T, read-out: Luciferase assay results NHEQ (EC50).
From the text: as §4, §5, §6

Take `O=C(Cn1ccn2c(=O)c(O)c(-c3ncc(Cc4ccc(F)cc4)o3)nc12)N1CCCCC1`: the EC50 is 0.001 to 0.1 µM in the assay with HIV WT integrase; 0.1 to 1 µM in [1]; 0.1 to 1 µM in assay [2]; 0.001 to 0.1 µM in assay [3]; 0.1 to 1 µM in assay [4]; 1 to 10 µM in [5]. Also, the half-maximal inhibitory concentration (IC50) against HIV integrase WT lay in the range of 0.001 to 0.1 µM.
`Cn1ccn2c(=O)c(O)c(C(=O)NCc3ccc(Cl)c(Cl)c3)nc12`: the EC50 is 0.001 to 0.1 µM in the assay with HIV WT integrase; 1 to 10 µM in assay [1]; 0.001 to 0.1 µM in [2]; 0.1 to 1 µM in assay [3]; greater than 10 µM in [4]; greater than 10 µM in [5]. The same compound gave an IC50 at HIV integrase WT of 0.1 to 1 µM.
For `Cn1ccn2c(=O)c(O)c(C(=O)NCc3ccc(F)cc3)nc12`, the EC50 with HIV WT integrase is 0.1 to 1 µM; in assay [1], greater than 10 µM; in assay [2], 0.1 to 1 µM; in [3], 1 to 10 µM; in [4], greater than 10 µM; in [5] it was greater than 10 µM. At HIV integrase WT, this compound returned a concentration for half-maximal inhibition (IC50) of 0.1 to 1 µM.
For the compound `C[C@H]1CN(C(=O)Cn2ccn3c(=O)c(O)c(-c4ncc(Cc5ccc(F)c(Cl)c5)s4)nc23)C[C@H](C)O1`, the EC50 in assay [6], in assay [7] and in [8] was 0.1 to 1 µM throughout.
Take `CN1CCN(C(=O)Cn2ccn3c(=O)c(O)c(-c4ncc(Cc5ccc(F)cc5)s4)nc23)CC1`: the EC50 in assay [6] was greater than 1 µM; in [7], 0.1 to 1 µM; in [8], 0.1 to 1 µM.
As for `C[C@H]1CN(C(=O)Cn2ccn3c(=O)c(O)c(-c4ncc(Cc5ccc(F)cc5)s4)nc23)C[C@H](C)O1` [drawing 254], the EC50 fell in the range of 0.1 to 1 µM in assay [6], 0.001 to 0.1 µM in assay [7] and 0.1 to 1 µM in assay [8].
